{"source": "patent US20100016388A1", "about": "“Salts of a Selective Beta-2 Andrenoceptor Agonist” (priority 2007, published 2010)", "biological_target": "T1, Adrenergic β2 (Homo sapiens, UniProt P07550)", "T1 construct": "Adherent H292 cells were removed from tissue culture flasks; endogenous in cells; host or cells: H292 cells", "T1 sequence (P07550 whole entry)": "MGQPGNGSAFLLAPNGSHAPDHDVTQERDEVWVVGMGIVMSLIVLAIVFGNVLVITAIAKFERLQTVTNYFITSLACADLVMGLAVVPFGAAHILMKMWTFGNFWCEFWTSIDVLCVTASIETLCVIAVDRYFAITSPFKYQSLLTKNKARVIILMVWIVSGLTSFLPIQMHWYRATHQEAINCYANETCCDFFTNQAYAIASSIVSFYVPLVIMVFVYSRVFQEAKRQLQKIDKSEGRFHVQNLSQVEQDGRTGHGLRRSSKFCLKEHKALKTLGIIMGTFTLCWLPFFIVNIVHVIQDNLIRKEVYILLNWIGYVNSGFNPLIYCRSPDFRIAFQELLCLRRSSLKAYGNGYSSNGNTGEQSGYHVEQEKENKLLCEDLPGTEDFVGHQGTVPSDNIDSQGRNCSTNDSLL", "assay": "Adrenergic β2 mediated cAMP production in H292 cells (AlphaScreen)", "format": "cell-based", "conditions": "Intrinsic Activity as a fraction relative to the maximum activity determined for formoterol", "protocol": "Adrenergic β2 Mediated cAMP Production\nH292 cells were grown in 225 cm2 flasks incubator at 37° C., 5% CO2 in RPMI medium containing, 10% (v/v) FBS (foetal bovine serum) and 2 mM L-glutamine.\nAdherent H292 cells were removed from tissue culture flasks by treatment with Accutase™ cell detachment solution for 15 minutes. Flasks were incubated for 15 minutes in a humidified incubator at 37° C., 5% CO2. Detached cells were re-suspended in RPMI media (containing 10% (v/v) FBS and 2 mM L-glutamine) at 0.05×10^6 cells per mL. 5000 cells in 100 μL were added to each well of a tissue-culture-treated 96-well plate and the cells incubated overnight in a humidified incubator at 37° C., 5% CO2. The culture media was removed and cells were washed twice with 100 μL assay buffer and replaced with 50 μL assay buffer (HBSS solution containing 10 mM HEPES pH7.4 and 5 mM glucose). […]\nThe concentration of cAMP (cyclic adenosine monophosphate) in the cell lysate was determined using AlphaScreen™ methodology. […] The AlphaScreen™ signal was measured using an EnVision spectrophotometer (Perkin-Elmer Inc.) with the recommended manufacturer's settings. cAMP concentrations were determined by reference to a calibration curve determined in the same experiment using standard cAMP concentrations. […] Intrinsic Activity was expressed as a fraction relative to the maximum activity determined for formoterol in each experiment.", "note": "Where a name gives a salt, the structure may show the parent alone.", "data": [{"smiles": "O=c1[nH]c2c(O)ccc([C@@H](O)CNCCSCCCNCCc3ccccc3Cl)c2s1", "note": "[Compound A, 7-[(1R)-2-({2-[(3-{[2-(2-Chlorophenyl)ethyl]amino}-propyl)thio]ethyl}amino)-1-hydroxyethyl]-4-hydroxy-1,3-benzothiazol-2(3H)-one dihydrobromide]", "values": [{"measurement": "β2 Int Act", "value": 0.8}]}]}
